For experiment [1], the system named is JJ5 Breast Cancer cells. Nature of the experiment: Growth inhibition assay against JJ5 breast cancer cells. Format: cell-based, human. To be noted: 4 days culture. The procedure: Growth medium was added and the cells were cultured at 37° C./5% CO^2 for 4 days. The cells were then recovered by trypsinization and counted in a hemocytometer. Control dishes contained cells cultured in growth medium containing ^111In-DTPA or growth medium alone.

In experiment [2] the test system is JJ5 Breast Cancer cells. The experiment in a line: Cytotoxicity (colony-forming) assay against JJ5 breast cancer cells. To be noted: 14 days. In kind it is cell-based, human. As for the experimental part: The number of cells seeded was varied from 3×10^4 to 3×10^6cells to obtain approximately 400 viable colonies/dish taking into account the plating efficiency and the expected level of cytotoxicity. Control dishes contained JJ5 breast cancer cells which were incubated with normal saline. Growth medium was added and the cells were cultured at 37° C./5% CO^2 for 14 days. The growth medium was removed and the colonies were stained with methylene blue (1% in a 1:1 mixture of ethanol and water) then washed twice. The number of colonies per dish was counted using a manual colony counter (Manostat Corp). The plating efficiency was calculated by dividing the number of colonies observed by the number of cells seeded in each dish.

Experiment [3] concerns JJ5 Breast Cancer cells. The experiment in a line: Binding of EGF-^111In-labeled transferrin compound to breast cancer cells (radioligand binding, kinetics, retention). Also on record: species or system human. As for the experimental part:
For the normal breast cell line HBL-100, 8000 EGFR/cell has been reported. The expression of EGFR in breast cancer cell lines has a reported range of 800 EGFR/cell for MCF-7 cells to 10^6 EGFR/cell for MDA-MB-468 cells. […] Utilizing the Auger electron emitter ^111In was used in the initial experiments to illustrate the utility of the invention using EGF-^111In-labeled transferrin compounds. The EGF-^111In-labeled transferrin (0.25-80 ng) was incubated with 1.5×10^6 cells/dish JJ5 Breast Cancer (prepared from BCBM JJ5) cells in 1 mL of 0.1% human serum albumin in 35 mm multiwell culture dishes at 37° C. for 30 minutes. The cells were transferred to a centrifuge tube and centrifuged. The cell pellet was separated from the supernatant and counted in a g-scintillation counter to determine bound (B) and free (F) radioactivity. Non-specific binding was determined by conducting the assay in 100 nM hEGF. […] Internalized fraction was measured by determining the proportion of radioactivity which could not be displaced from the cell surface by 100 nM hEGF. Cell-associated binding (surface-binding and intracellular accumulation) was expressed as a percentage of medium radioactivity bound per mg of cell study protein.

With `[In+3].[O-]c1cccc2cccnc12.[O-]c1cccc2cccnc12.[O-]c1cccc2cccnc12` [^111In-oxine, reference compound], the “growth inhibition of the JJ5 cells compared to the medium control” value in the experiment on JJ5 Breast Cancer cells [1] (3.5 pCi/cell) is 91%. Moreover, the cell killing result in the experiment on JJ5 Breast Cancer cells [2] (<6 pCi/cell) is listed as “greater than 99%”.

For the molecule “EGF-^111In-labeled transferrin compound: human EGF linked to ^111In-labeled human transferrin”, the “internalization by cancer cells, in words” value in the experiment with JJ5 Breast Cancer cells [3] is listed as “rapidly internalized”. Moreover, in the experiment with JJ5 Breast Cancer cells [3] (JJ5 cells, 37° C.), the “binding by the breast cancer cells (kinetics, in words)” value was “rapidly bound” and the “retained by the breast cancer cells” value is given as “at least 24 hours”. Besides, the “affinity constant for binding to JJ5 cells” value in the experiment with JJ5 Breast Cancer cells [3] (JJ5 cells, 37° C., 30 minutes) worked out at 8e+08 L/mol. In the experiment on JJ5 Breast Cancer cells [1] (3.4 pCi/cell), the “growth inhibition of the JJ5 cells compared to the medium control” value came to 83%. Further, the “reduction in cell survival for JJ5 cells” value with JJ5 Breast Cancer cells [2] (8 pCi/cell) is 99%.

(Values after patent US20040219097A1, “Composition useful for the diagnosis, imaging and treatment of tumors” (priority 2003, published 2004).)
